Measured values from US10695296B2, “Formulations, methods, kit, and dosage forms for improved stability of an active pharmaceutical ingredient” (Asana BioSciences, LLC, priority 2017, dated 2020).

Assay: Dissolution, USP <711> Apparatus 2 paddle method at 50 rpm
Assay type: physicochemical
Settings: 500 ml 0.01 N HCl or 50 mM phosphate buffer (pH 6.8), 0.5% sodium lauryl sulfate, paddle 50 rpm
Procedure: The dissolution characteristics of the spray-dried formulation prepared in Example 2 above were measured by suspending the formulation in 500 ml 0.01 N HCl or 50 mM phosphate buffer (pH 6.8), 0.5% sodium lauryl sulfate, and measuring dissolution by the USP <711> Apparatus 2 (paddle method) at 50 rpm. As a control, particles of crystalline active ingredient N-(3-(2-(6-amino-4-(trifluoromethyl)pyridin-3-yl)-4-morpholinopyrido[3,2-d]pyrimidin-6-yl)-2-fluorophenyl)-3-fluoropropane-1-sulfonamide (as prepared in Example 7 below) was suspended in either 500 ml 0.01 N HCl or 50 mM phosphate buffer (pH 6.8), 0.5% sodium lauryl sulfate and dissolution measured by the same method.

## Nc1cc(C(F)(F)F)c(-c2nc(N3CCOCC3)c3nc(-c4cccc(NS(=O)(=O)CCCF)c4F)ccc3n2)cn1 [crystalline active ingredient, N-(3-(2-(6-amino-4-(trifluoromethyl)pyridin-3-yl)-4-morpholinopyrido[3,2-d]pyrimidin-6-yl)-2-fluorophenyl)-3-fluoropropane-1-sulfonamide]
  dissolution state after 60 minutes: still not fully dissolved
